Results as given in patent US6905836B2, “Methods for identifying compounds that inhibit ubiquitin-mediated proteolysis of iκb” (Yissum Research Development Company of the Hebrew …, priority 2000, dated 2005).
Residues, ends and D or L forms follow the SMILES beside them. *: point of attachment. Cbz = O=C(OCc1ccccc1)*

T1: E3RS-hnRNP-U complex (Homo sapiens, UniProt Q9Y297)
T1 construct: expressed in transfected cells; host or cells: 293T cells
T1 sequence (Q9Y297 1-605): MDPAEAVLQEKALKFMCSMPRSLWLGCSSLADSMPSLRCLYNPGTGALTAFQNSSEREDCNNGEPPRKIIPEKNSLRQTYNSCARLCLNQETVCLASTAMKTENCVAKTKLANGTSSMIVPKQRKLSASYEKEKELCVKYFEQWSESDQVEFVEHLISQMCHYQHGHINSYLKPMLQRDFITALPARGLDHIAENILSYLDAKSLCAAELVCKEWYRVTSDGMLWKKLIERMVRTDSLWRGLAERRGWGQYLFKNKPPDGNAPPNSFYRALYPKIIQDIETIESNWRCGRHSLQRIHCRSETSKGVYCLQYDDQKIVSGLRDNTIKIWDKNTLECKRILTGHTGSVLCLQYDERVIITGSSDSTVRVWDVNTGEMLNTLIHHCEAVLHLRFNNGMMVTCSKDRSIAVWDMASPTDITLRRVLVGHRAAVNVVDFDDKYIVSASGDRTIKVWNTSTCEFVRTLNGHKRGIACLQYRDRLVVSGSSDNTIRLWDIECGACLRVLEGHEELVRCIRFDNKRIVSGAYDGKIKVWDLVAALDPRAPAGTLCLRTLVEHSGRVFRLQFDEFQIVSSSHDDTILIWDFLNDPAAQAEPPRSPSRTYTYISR


What was measured:
[1] = test system: Vpu-mediated GFP-CD4 degradation; test: Vpu-mediated CD4 degradation assay (GFP-CD4, tet-off Vpu); assay type: cell-based, human; conditions: 293 cells, pretreatment of transfected cells, Western blotting (FIG. 7C)
Description: The inducible system consists of the tetracycline (Tc)-responsive promoter system developed by Gossen and Bujard (1992). Vpu and GFP-CD4 expression were performed in either HeLa Tet-off gene expression system (CLONTECH). These stably transfected HeLa cells carry the pTet-Off regulator plasmid encoding a tetracycline-controlled transactivator (tTA), which also includes a neomycin-resistance gene. Alternatively 293 cells were transfected with the inducible constructs and the pTet-Off plasmid (Lavon et al., 2000). […]
The ubiquitin-ligase activity is measured as a function of Vpu-mediated GFP-CD4 degradation (FIG. 7A). […] The N-terminal CD4 sequence, including the first three Ig-like domains (but preserving the CD4 signal sequence), was replaced with the human EGFP sequence for allowing the quantitative measurement of the fusion protein through the GFP fluorescence signal.
A GFP-CD4 expression plasmid was co-transfected into 293 cells together with expression plasmids for doxycycline (DOX)-regulated HIV-Vpu and tTA (tetracycline transactivator) plasmid. Vpu and GFP-CD4 expression were detected by Western blotting. […]

E3RS-hnRNP-U complex = molecular target: T1, E3RS-hnRNP-U complex; test: Dissociation of E3RS from immobilized hnRNP-U by IκBα species; assay type: binding; conditions: anti-hnRNP-U immunobeads from Flag-E3RS transfected 293T cells; Western blot (FIG. 4D)
Description: Flag-E3RS and endogenous hnRNP-U from 293T cells were used as an E3 source and Flag-WD was used as a negative control. 100 μg protein extract was immunoprecipitated using 2 μl anti-Flag beads or 0.21 μl anti-hnRNP-U antibodies. IκB was phosphorylated by the constitutively-active IκB kinase (IKK2; (Mercurio et al., 1997)) and subjected to binding and ubiquitination assays with each of the above E3 sources, as described previously by (Yaron et al., 1998).
Next, 293T cells transfected with Flag-E3RS were immunoprecipitated using anti-Flag (lanes 1,2) or anti-hnRNP-U (FIG. 4D, lanes 3-7) antibodies. IκBα (FIG. 4D, lanes 1,3,4) and IKK phosphorylated IκBα (pIκBα; FIG. 4D, lanes 2,5-7) were incubated with the immunobeads, after which, both the immunobeads (slurry (S); FIG. 4D, lanes 1-3,5) and the post-slurry fractions (PS; FIG. 4D, lanes 4,6) were analyzed by Western blot directly, or after immunoprecipitation of the post-slurry fraction (same as in FIG. 4D, lane 6) with anti-Flag beads (FIG. 4D, lane 7).

Molecule	GFP-CD4 signal upon Vpu expression [1]	dissociation of E3RS from immobilized hnRNP-U into the post-slurry fraction (E3RS-hnRNP-U complex)
CC(C)C[C@@H](C=O)NC(=O)[C@H](CC(C)C)NC(=O)[C@H](CC(C)C)NC(=O)OCc1ccccc1 [MG132] (Cbz-Leu-Leu-Leu-aldehyde)	preservation of the GFP-CD4 signal	–
pIκBα: IKK phosphorylated IκBα protein (protein) MFQAAERPQEWAMEGPRDGLKKERLLDDRHDSGLDSMKDEEYEQMVKELQEIRLEPQEVPRGSEPWKQQLTEDGDSFLHLAIIHEEKALTMEVIRQVKGDLAFLNFQNNLQQTPLHLAVITNQPEIAEALLGAGCDPELRDFRGNTPLHLACEQGCLASVGVLTQSCTTPHLHSILKATNYNGHTCLHLASIHGYLGIVELLVSLGADVNAQEPCNGRTALHLAVDLQNPDLVSLLLKCGADVNRVTYQGYSPYQLTWGRPSTRIQQQLGQLTLENLQMLPESEDEESYDTESEFTEFTEDELPYDDCVFGGQRLTL	–	induced the dissociation of the E3RS from the immobilized hnRNP-U
